According to paper PMC4602232, “Structural basis for recognition of Emi2 by Polo-like kinase 1 and development of peptidomimetics blocking oocyte maturation and fertilization” (Scientific Reports, 2015):
“Also recorded” adds a separate entry of the source. Non-standard residues stand in square brackets, D forms with d. No end group written: not given here. pT = C[C@@H](OP(=O)(O)O)[C@H](N)C(=O)O

How the values were obtained:
[1] = tested on: Emi2^1–300-mCherry reporter in MII oocytes; assay: Emi2^1–300-mCherry degradation after parthenogenetic activation (time-lapse microscopy); type: cell-based, mouse; conditions: SrCl2 treatment in the presence of 100 nM BI2536; n = 3 oocytes
Description: pRN3-Emi2^1−300-mCherry plasmids containing the Plk1 recognition site and a degron for a SCF family ubiquitin ligase were constructed from synthetic Emi2^1–300 gene fragments and subcloned into the pRN3 vector as an mCherry fusion by means of Gibson Assembly[50]. The plasmids were linearized by digestion with SfiI; then cRNA was synthesized with T3 mMessage mMachine (Life Technologies). In vitro transcripts were purified by phenol-chloroform extraction and isopropyl alcohol precipitation and stored at −80 °C until use.
GV stage oocytes were injected with various peptidomimetics at 300 μM in a 50% aqueous solution (w/v) of dimethyl sulfoxide. Peptidomimetics were injected into oocyte by means of a Eppendorf Femto Jet (Eppendorf AG, Hamburg, Germany) and a Nikon Diaphot ECLIPSE TE300 inverted microscope (Nikon UK Ltd., Kingston upon Thames, Surrey, UK) equipped with a Narishige MM0-202N hydraulic three-dimensional micromanipulator (Narishige Inc., Sea Cliff, NY, USA) and subjected to in vitro maturation as described above. As a control, the BG34 reagent with threonine residues instead of phosphothreonine[35] was injected into oocytes at 300 μM. To test the oocytes for parthenogenetic activation, we collected mature MII oocytes and injected them with various reagents as described above for GV oocytes. […]

bromodomain BRD4 = conditions: cited from earlier work
Description: On the other hand, due to the high degree of similarity among kinase domains’ ATP-binding pockets, achieving good specificity is a difficult task. […] Because PBD exists only in the Plk family (Plk1 through Plk4), targeting of this site can result in high specificity along with enhanced binding affinity; these properties may faci ...

mouse oocyte maturation = conditions: cited from earlier work
Description: In Xenopus and in mice, the general scheme of calcium-mediated signal transduction has been well established, but the detailed molecular mechanism has been elusive. For instance, Plk1 is involved in Emi2 phosphorylation and destabilization, but the mechanism of binding of Plk1 to Emi2 has not yet been determined. Plk1 is known to be involved in various cell cycle-related processes, and recently it received attention as a target of anticancer treatments.

[2] = target: T1, Mouse Plk1 Polo box domain (Plk1-PBD, amino acid residues 367-603) (mouse, UniProt Q07832 367-603); assay: ITC; phosphorylated peptide (1.2 mM) injected into Plk1-PBD (0.1 mM) in the cell; 15 °C; 20 mM Tris-Cl pH 8.0, 300 mM NaCl, 3 mM DTT; one-site binding model; conditions: both partners purified
T1 construct: Polo-like kinase 1 (Plk1), mouse, polo box domain, residues 367-603; TEV site ENLYFQ/S between the His6 tag and the PBD; cleavage between Q and S should leave a Ser before residue 367 (surmised); also called polo box domain of Polo-like kinase 1; source: E. coli BL21 (DE3), purified (Ni-NTA, TEV digestion, Superdex 75 gel filtration); not shown: His6, N-terminal, cleaved
T1 sequence (Q07832 367-603): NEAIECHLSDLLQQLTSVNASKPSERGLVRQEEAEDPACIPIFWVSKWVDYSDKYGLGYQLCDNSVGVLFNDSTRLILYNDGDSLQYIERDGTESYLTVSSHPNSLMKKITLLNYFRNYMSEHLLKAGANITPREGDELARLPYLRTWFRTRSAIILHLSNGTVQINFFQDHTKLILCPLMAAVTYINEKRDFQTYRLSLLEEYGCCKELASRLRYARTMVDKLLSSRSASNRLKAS

Row | Molecule | decrease of Emi2-mCherry fluorescence after parthenogenetic activation (in words) [1] | binding and inhibition of BRD4 (in words) (bromodomain BRD4) | mouse oocyte maturation (in words) (mouse oocyte maturation) | Kd [2] [µM] | stoichiometry N [2]
1 | CC[C@@H]1C(=O)N(C)c2cnc(Nc3ccc(C(=O)NC4CCN(C)CC4)cc3OC)nc2N1C1CCCC1 [BI2536] | did not cause any reduction in fluorescence even after 100 min; also recorded: blocks Emi2 degradation after parthenogenetic activation by SrCl2 | bind and inhibit bromodomain BRD4 at nanomolar concentration | impairs mouse oocyte maturation |  | 
2 | FSQHKTS[pT]I-NH2 (Made on Rink amide resin, so probably a C-terminal amide (surmised); source: synthetic peptide (Fmoc SPPS, Rink amide resin, RP-HPLC)) [Phosphorylated Emi2 169-177 peptide (phospho-Thr176)] |  |  |  | 29.6 | 0.92 ratio of Emi2^169–177 to Plk1-PBD
3 | SPLVTS[pT]IKTEDVVSNSQNSRLHFSQHKTS[pT]I (peptide, UniProt Q8CDI2 146-177, looked up, Made on Rink amide resin, so probably a C-terminal amide (surmised); source: synthetic peptide (Fmoc SPPS, Rink amide resin, RP-HPLC)) [Phosphorylated Emi2 146-177 peptide (phospho-Thr152 and phospho-Thr176)] |  |  |  |  | 0.47 ratio of Emi2^146–177 to Plk1-PBD
